# Where two headings read alike, the source gives them in different places. Starred links: 1 amine or outer side, 2 acyl side, 3 side chain; linkers in the order of their positions; H or OH if unused. Positions of bridges follow the written chain, without caps; N, C: chain ends. Non-standard residues stand in square brackets, D forms with d. Residues, ends and D or L forms follow the SMILES beside them. Chains are numbered I, II in the order given. Actinocin(9to1) = Cc1c2oc3c(C)ccc(C(=O)[*:1])c3nc-2c(C(=O)[*:2])c(N)c1=O; NMeV = CN[C@H](C(=O)O)C(C)C; Sar = CNCC(=O)O
# Assays:
# microtubule function = conditions: cited from earlier work
# P388/5FU = test: In vivo activity against drug resistant tumour P388/5FU; design: species or system mouse; conditions: optimum dose 20.0 mg/kg
# Description: (§1) CD2-F1 mice, of the same sex, weighing within a 3 gram range surrounding 20 g, are used for this test. Control and test animals are injected intraperitoneally with a suspension of 10^6 viable P388/O tumour cells on day 0. In each test several dose levels which bracket the LD20 for the compound are evaluated; each dose level group contains 6 animals. The test compounds are prepared either in physiologic saline containing 0.05% Tween 80 or distilled water containing 5% dextrose and are administered intraperitoneally on days 1,5 and 9 relative to tumour implant. Doses are on a mg/kg basis according to individual animals' body weights. The day of death for each animal is recorded and the median day of death identified for each group. The difference between the median survival time for treated and control groups is expressed as a percentage increase in life span (% ILS).
# (§2) E. Activity Against Drug-Resistant Tumours
# (§3) Using a similar procedure to the Lymphocytic Leukaemia P388/O test, the compound of Example 1 was evaluated against P388/O tumours which had been made resistant to the following standard, clinically used anti-tumour agents: […]
# P388/CPA = test: In vivo activity against drug resistant tumour P388/CPA; design: species or system mouse; conditions: optimum dose 265.0 mg/kg
# P388/BCNU = test: In vivo activity against drug resistant tumour P388/BCNU; design: species or system mouse; conditions: optimum dose 2.0 mg/kg
# Description: as §1, §2
# Using a similar procedure to the Lymphocytic Leukaemia P388/O test, the compound of Example 1 was evaluated against P388/O tumours which had been made resistant to the following standard, clinically used anti-tumour agents:
# bis-chloronitrosourea (BCNU)
# P388/Cis--Pt = test: In vivo activity against drug resistant tumour P388/Cis-Pt; design: species or system mouse; conditions: optimum dose 5.3 mg/kg
# P388/VCR = test: In vivo activity against drug resistant tumour P388/VCR; design: species or system mouse; conditions: optimum dose 1.5 mg/kg
# Description: as §1, §2, §3
# P388/MTX = test: In vivo activity against drug resistant tumour P388/MTX; design: species or system mouse; conditions: optimum dose 3.0 mg/kg
# Description: as §1, §2, §3
# P388/ADR = test: In vivo activity against drug resistant tumour P388/ADR; design: species or system mouse; conditions: optimum dose 4.5 mg/kg
# Description: as §1, §2, §3
# tubulin = test: Turbidimetric assay of tubulin polymerisation; assay type: biochemical, horse; conditions: 37° C., increase in A350nm 10 min after lag phase; read-out: Total tubulin polymerisation IC50
# Description: A) Tubulin Polymerisation Assay
# 1. Preparation of tubulin
# All manipulations are performed at 4° C. unless otherwise specified. The horse brain is washed in ice-cold BBG buffer and superficial meninges and blood vessels removed. After weighing, cerebral cortices are chopped, homogenised in 75 ml BBG buffer/100 g brain, centrifuged at 6500 g for 15 min and after removal of […], re-centrifuged at 100,000 g for 75 min. The volume of the supernatant (Vml) is measured and V/10 ml 10 mM GTP (Li salt) in H2 O added. The mixture is incubated in sealed centrifuge tubes (30 min, 34° C.) in a shaking water bath to polymerise the tubulin. After polymerisation the tubes are balanced and centrifuged at 100,000 g, (1 h at 27° C.) in a pre-warmed rotor. The high-speed pellet is resuspended in V/4 ml BB buffer and the preparation stirred on ice for 30 min and centrifuged at 100,000 g (1 h at 4° C.) to remove the cold-stable microtubules. An equal volume of BB2G buffer is added to the supernatant which is frozen rapidly in 5 ml samples in plastic weighing dishes floated on a solid CO2 /ethanol slurry, and stored overnight at -80° C. After ca. 18 hours the frozen samples of tubulin are thawed, 10 mM GTP in H2 O added to give a final concentration of 1 mM, and the new volume (Wml), is measured. The polymerisation/depolymerisation cycle is repeated exactly as above but substituting W for V to give twice-cycled tubulin.
# 2. Turbidimetric Assay of Tubulin Polymerisation
# Apparatus: recording spectrophotometer with a 6-position, thermostatted cuvette holder; full scale deflection=0.2 absorbance units.
# In a 1 ml spectrophotometer cuvette are mixed 100 μl 10 mM GTP (Li salt) made up in BB buffer, 10 μl H2 O or DMSO-depending on selected drug solvent, BB buffer and tubulin preparation such that the final increase in A350nm is 0.15 units after 16 mins (approx. 100 μl of tubulin prep. or 2.5 mg protein) in a final volume of 1 ml at 37° C. All reagents are stored on ice.
# Polymerisation is initiated by raising the temperature to 37° C. and the increase in A350nm of triplicate samples against a reference cuvette is recorded. The reference sample includes a similar incubation mixture either without tubulin or with the addition of 1 mM Ca^2+. The increase over initial A350nm 10 min after the completion of lag phase (control polymerisation is 80% complete within this time) is calculated and expressed as a percentage of the control value, for a range of drug concentrations. The drug concentration required to give a 50% change (IC50) in the control value is determined.
# [1] = test system: HCT-116 human colon carcinoma cells; test: In vitro activity against human tumour cell line HCT-116 (proliferation); assay type: cell-based; conditions: HCT-116, 96 h
# Description: (§4) Cells from the human tumour cell lines DLD-1, HCT-116, WiDr and A549 are exposed to serially diluted concentrations of test compounds over a 96 hour period in culture. The ability of such cells to proliferate over the test period is determined.
# (§5) Cells in log growth are plated into 96 well multiwell tissue culture dishes in 100 μl/well of RPMI 1640 culture medium supplemented with 10% foetal calf serum, antibiotics and test compound. All compounds are formulated initially at appropriate concentrations in DMSO, the final concentrations in this solvent being twenty times that required in the plate. A final 1 in 10 dilution in complete medium is then made before adding 100 μl to each well of the plate. All compounds are evaluated at concentrations ranging serially in four fold decrements from a top concentration some four fold greater than that already known to inhibit the proliferation of cells from the mouse lymphoid neoplasm, P388D1 by about 80 to 90 percent in a primary proliferative assay.
# (§6) After 96 hours the proliferation of cells exposed to test compound is compared with control untreated cells by one of two methods:
# (§7) b) 20 μl of MTT (5 mg/ml in PBS) is added to each well. After an incubation period of 4 hours the medium from each well is aspirated and replaced with 200 μl DMSO to dissolve the formazan crystals formed. Absorbances are read by an ELISA plate spectrophotometer at a wavelength of 540 nm. The IC50 is defined as that concentration of drug which decreases absorbance to 50% of that in control (drug-free) cultures. This method is used for the WiDr, HCT-116 and A549 cell lines.
# P388/O tumour = test: Lymphocytic leukaemia P388/O test; assay type: in vivo, mouse; conditions: Mus musculus, P388, ip
# Description: C. Lymphocytic Leukemia P388/O Test
# as §1
# LD20 (Mouse) = assay type: in vivo; conditions: i.p. days 1, 5 and 9, CD2-F1 mice, observed up to 14 days
# P388 D1 cells = test: P388 D1 colony-forming assay; assay type: cell-based; conditions: Mus musculus
# Description: B) P338D1 Colony-forming Assay
# In this assay, cells from an in vitro-adapted line of the mouse lymphoid neoplasm, P388 are first exposed to serially diluted concentrations of test compound over a 24 hour period in culture. Thereafter, the ability of such treated cells to form discrete colonies over a 14 day period after resuspension in a semi-solid drug-free medium is determined.
# Initially cells in log growth are plated into individual 25 cm^2 tissue culture flasks each containing a final volume of 5 mls of Hepes buffered RPMI 1640 culture medium supplemented with 10 percent foetal calf serum, antibiotics and test compound. All compounds are formulated initially at appropriate concentrations in DMSO, 25 microliters of which is then added to each flask. All compounds are evaluated at concentrations ranging serially in four fold decrements from a top concentration some four fold greater than that already known to inhibit the proliferation of these cells by about 80 to 90 percent in the primary proliferative assay.
# After 24 hrs exposure to the test compound the cells are counted and a known number of live cells transferred to a 15 ml centrifuge tube to which 4 mls of a 0.25 percent low temperature gelling agarose solution in complete RPMI tissue culture medium is then added. After 13 days incubation at 37° C., 1 ml of 1% p-Iodonitrotetrazolium violet is added to the top of each tube and allowed to permeate through the agarose for a further 24 to 48 hrs. This dye is metabolised by living cells to produce an insoluble red crystalline product which facilitates counting of the colonies. Samples are taken from each tube and the number of colonies containing a minimum of 50 cells is determined. The concentration of compound necessary to inhibit colony formation by 50 percent relative to that of control cells incubated under identical conditions but in the absence of the test compound is determined.
# [2] = test system: WiDr human colon adenocarcinoma cells; test: In vitro activity against human tumour cell line WiDr (proliferation); assay type: cell-based; conditions: 96 h
# Description: as §4, §5, §6, §7
# [3] = test system: DLD-1 human colon carcinoma cells; test: In vitro activity against human tumour cell line DLD-1 (proliferation); assay type: cell-based; conditions: DLD-1, 96 h
# Description: as §4, §5, §6
# a) Culture supernatants are aspirated and cells fixed and stained by adding a solution of methylene blue (5 g per liter of 50% ethanol: water, 100 μl/well). After 30 minutes at room temperature unbound stain is washed off by immersing plates in water. Stained cells are solubilised overnight using 1% Sarkosyl (Sigma) in phosphate-buffered saline (100 μl/well). Absorbances are read by an ELISA plate spectrophotometer at a wavelength of 620 nm. The IC50 is defined as that concentration of drug which decreases absorbance to 50% of that in control (drug-free) cultures. This method is used for the DLD-1 cell line.
# [4] = test system: A549 human lung carcinoma cells; test: In vitro activity against human tumour cell line A549 (proliferation); assay type: cell-based; conditions: A549, 96 h
# Description: as §4, §5, §6, §7
# P388/ActD = test: In vivo activity against drug resistant tumour P388/ActD; design: species or system mouse; conditions: optimum dose 0.5 mg/kg
# Description: as §1, §2, §3
structure (smiles),measurement,setting,value
COC(=O)Nc1nc2ccc(C(=O)c3cccs3)cc2[nH]1 [nocodazole],microtubule inhibitory activity,microtubule function,microtubule inhibitory activity
"O=c1[nH]cc(F)c(=O)[nH]1 [Example 5FU, 5-fluorouracil, reference compound]",60 Day Survivors,P388/5FU,0/6
same,% ILS,P388/5FU,+71%
CCOC(=O)Nc1ccc(SCC2COC(Cn3ccnc3)(c3ccc(Cl)cc3Cl)O2)cc1 (stereo not drawn) [tubulazole],microtubule inhibitory activity,microtubule function,microtubule inhibitory activity
"O=P1(N(CCCl)CCCl)NCCCO1 (stereo not drawn) [CPA, cylophosphamide, reference compound]",60 Day Survivors,P388/CPA,0/6
same,% ILS,P388/CPA,+55%
"O=NN(CCCl)C(=O)NCCCl [BCNU, bis-chloronitrosourea, reference compound]",60 Day Survivors,P388/BCNU,0/6
same,% ILS,P388/BCNU,+36%
"N.N.[Cl][Pt][Cl] [Cis--Pt, Cis-platinum, reference compound]",60 Day Survivors,P388/Cis--Pt,0/6
same,% ILS,P388/Cis--Pt,+21%
"CC[C@]1(O)C[C@H]2CN(CCc3c([nH]c4ccccc34)[C@@](C(=O)OC)(c3cc4c(cc3OC)N(C=O)[C@H]3[C@@](O)(C(=O)OC)[C@H](OC(C)=O)[C@]5(CC)C=CCN6CC[C@]43[C@@H]65)C2)C1 [VCR, Vincristine, reference compound]",microtubule inhibitory activity,microtubule function,inhibitor of microtubule function
same,60 Day Survivors,P388/VCR,0/6
same,% ILS,P388/VCR,+36%
"CN(Cc1cnc2nc(N)nc(N)c2n1)c1ccc(C(=O)N[C@@H](CCC(=O)O)C(=O)O)cc1 [MTX, methotrexate, reference compound]",60 Day Survivors,P388/MTX,0/6
same,% ILS,P388/MTX,+15%
"COc1cccc2c1C(=O)c1c(O)c3c(c(O)c1C2=O)C[C@@](O)(C(=O)CO)C[C@@H]3O[C@H]1C[C@H](N)[C@H](O)[C@H](C)O1 [ADR, adriamycin, reference compound]",60 Day Survivors,P388/ADR,0/6
same,% ILS,P388/ADR,+27%
"CCOC(=O)Nc1cn2nc(OCc3cc(OC)c(OC)c(OC)c3)ccc2n1 [Example 7, Ethyl N-[6-(3,4,5-trimethoxybenzyloxy)imidazo[1,2-b]pyridazin-2-yl]carbamate]",IC50,tubulin,520 nM
same,IC50,"[1]; MTT, read-out: IC50",8.25 nM
same,ILS at 5 mg/kg,"P388/O tumour; 5 mg/kg i.p. days 1, 5 and 9",111%
same,LD50,LD20 (Mouse),15 mg/kg
same,IC50,"P388 D1 cells; P388D1, 24 h exposure, 14 days colony growth, read-out: IC50 colony formation",6.34 nM
same,IC50,"[2]; MTT, read-out: IC50",19.7 nM
same,IC50,"[3]; methylene blue, read-out: IC50",5.92 nM
same,IC50,"[4]; MTT, read-out: IC50",22.4 nM
"Cc1c2oc3c(C)ccc(C(=O)N[C@@H]4C(=O)N[C@H](C(C)C)C(=O)N5CCC[C@H]5C(=O)N(C)CC(=O)N(C)[C@@H](C(C)C)C(=O)O[C@@H]4C)c3nc-2c(C(=O)N[C@@H]2C(=O)N[C@H](C(C)C)C(=O)N3CCC[C@H]3C(=O)N(C)CC(=O)N(C)[C@@H](C(C)C)C(=O)O[C@@H]2C)c(N)c1=O [ActD, actinomycin D, reference compound] (I: T[dV]P[Sar][NMeV] / II: T[dV]P[Sar][NMeV]; ester I:1-I:C, II:1-II:C; linker I:N-II:N via Actinocin(9to1))",60 Day Survivors,P388/ActD,0/6
same,% ILS,P388/ActD,+27%
"CCOC(=O)Nc1cn2nc(OCc3cc(OC)ccc3OC)ccc2n1 [Example 2, Ethyl N-[6-(2,5-Dimethoxybenzyloxy)imidazo[1,2-b]pyridazin-2-yl]carbamate]",IC50,tubulin,140 nM
same,IC50,[1],2.8 nM
same,ILS at 7.3 mg/kg,P388/O tumour,31%
same,LD50,LD20 (Mouse),5 mg/kg
same,IC50,"P388 D1 cells; P388D1, read-out: IC50 colony formation",0.516 nM
same,IC50,[2],4.57 nM
same,IC50,[3],2.9 nM
same,IC50,[4],3.42 nM
CCOC(=O)Nc1cc2c(c(N)n1)N=C(CN(C)c1ccccc1)CN2 [NSC-181928],microtubule inhibitory activity,microtubule function,microtubule inhibitory activity

# Source: patent US5380759A, “Methyl N-[6-(3,4,5-trimethoxybenzloxy)imidazo[1,2-b]pyridazin-2-zyl]carbamate used to treat leukemia” (priority 1987, dated 1995)
